# pIC50: −log10 of the molar value. Like-named read-outs stand apart in the source and are kept apart here.
# Assays:
# [1] = system: human colon cancer cells HCT-116; test: Cell Death Detection ELISA apoptosis induction (Part 3); type: cell-based; conditions: HCT-116, 10 μM, 24 hours
# Procedure: (§1) Human colon cancer cells HCT-116 and human lung cancer cells H-1299 were plated in 96-well plates at a density of 5000 cells/well and allowed to attach overnight at 37° C. M14, M15, or [6]-shogaol in DMSO, or DMSO control, diluted in media, were added to cells and incubated for an additional 24 hours at 37° C. After 24 hours, media containing compound was removed and cells were lysed in their respective wells with reagents from a Cell Death Detection ELISA^PLUS kit from Roche Applied Science (Mannheim, Germany). Samples were harvested after cell lysates were spun down at 300 g for 10 minutes. To streptavidin coated microplates, 20 μL samples were added, and mixed with 80 μL Immunoreagent, which consisted of anti-histone-biotin, and anti-DNA-POD, and incubated with gentle shaking for 2 hours at room temperature. After incubation, Immunoreagent was removed and samples were washed 3 times with 250 μL incubation buffer. Substrate solution, ABTS, was added to each well and color was developed for 15 minutes before stopping the reaction with ABTS stop solution and reading absorbance on a microplate reader at 430 nm. Experiments were performed in triplicate and the average is given in comparison to DMSO control with standard deviation.
# [2] = system: human lung cancer cells H-1299; test: as above; type: cell-based; conditions: H-1299, 10 μM, 24 hours
# Procedure: as §1
# [3] = Kinetic study of [6]-shogaol metabolism to M6 in liver microsomes; conditions: human liver microsomes 0.1 mg/mL, 30 min, [6]-shogaol 7.8 to 2000 μM
# Procedure: To estimate kinetic parameters of metabolism of [6]-shogoal to major product M6 in liver microsomes from human and other species, the incubation conditions were optimized to ensure that formation rate of M6 was in the linear range in relation to incubation time and protein concentration. [6]-Shogaol (7.81, 15.63, 31.25, 62.5, 125, 250, 500, 1000, and 2000 μM) was incubated with liver microsomes from mouse (MLM), rat (RLM), dog (DLM), monkey (CyLM), and human (HLM) (0.1 mg/mL each, respectively) for 30 minutes. All incubations were performed in triplicate. The apparent Km and Vmax values were calculated from analysis of experimental data according to the Michaelis-Menten equation, and the results were graphically represented (for HLM) by an Eadie-Hofstee plot. Kinetic constants were reported as the value+/−S.E. of the parameter estimate.
# [4] = as above; type: in vitro ADME, mouse; conditions: mouse liver microsomes 0.1 mg/mL, 30 min; read-out: Km of M6 formation
# Procedure: (§2) All incubations were performed in triplicate.
# [5] = as above; type: in vitro ADME, monkey; conditions: monkey liver microsomes 0.1 mg/mL, 30 min
# Procedure: as §2
# [6] = system: H-1299 cells; test: TUNEL apoptosis assay (Part 1); type: cell-based, human; conditions: 24 h
# Procedure: (§3) HCT-116 and H-1299 cells were seeded in six-well plates at 1.0×10^5 cells/well and were incubated at 37° C. in a 5% CO2 incubator. After 24 h, fresh media supplemented with DMSO (control), [6]-shogaol (10 or 20 μM), M9 (40 or 80 μM), or M11 (40 or 80 μM) were added to the wells. After 24-h incubation, cells were washed and pretreated for 15 min at room temperature with a solution of 20 μg/ml proteinase K. Cells were then washed twice with PBS pH 7.4 and were fixed for 10 min at room temperature using 10% neutral formaldehyde solution. After two washes in distilled H2O, cells were resuspended in 100 μl of distilled H2O and were applied on silanized microscope slides. Slides were incubated overnight at 37° C. and were washed twice with PBS. Terminal deoxynucleotidyl transferase deoxyuridine triphosphate nick-end labeling (TUNEL) assay was then performed according to the manufacturer's protocol. Cells were observed under 400× power using a Zeiss A1 microscope (Carl Zeiss, Inc., Thornwood, N.Y.).
# (§4) Ten fields per slide were evaluated, and TUNEL-positive cells (with brown coloration in the nucleus) were expressed as a percentage of the total number of cells contained in a field. Statistical Analysis. For simple comparisons between two groups, twotailed Student's t test was used. A p value of less than 0.05 was considered statistically significant in all the tests.
# [7] = system: HCT-116 cells; test: TUNEL apoptosis assay (Part 1); type: cell-based, human; conditions: 24 h
# Procedure: as §3, §4
# [8] = system: human colon cancer cells HCT-116; test: MTT growth inhibition by M14 and M15 (Part 3); type: cell-based; conditions: HCT-116, 24 hours, 0 to 80 μM; read-out: IC50 (cell viability, MTT)
# Procedure: (§5) Cell growth inhibition was determined by a MTT colorimetric assay. […] The reading reflected the number of viable cells and was expressed as a percentage of viable cells in the control. Both HCT-116 and H-1299 cells were cultured in McCoy's 5A medium. All of the above media were supplemented with 10% fetal bovine serum, 1% penicillin/streptomycin, and 1% glutamine, and the cells were kept in a 37° C. incubator with 95% humidity and 5% CO2.
# [9] = system: human lung cancer cells H-1299; test: MTT growth inhibition by M14 and M15 (Part 3); type: cell-based; conditions: H-1299, 24 hours, 0 to 80 μM; read-out: IC50 (cell viability, MTT)
# Procedure: as §5
smiles,measurement,setting,value
"CCCCC/C=C/C(=O)CCc1ccc(O)c(OC)c1 [[6]-shogaol, reference compound]",induction of apoptosis compared to DMSO control,[1],1 fold
same,induction of apoptosis compared to DMSO control,[2],~2 fold
same,Vmax of M6 formation,[3],10.82+/−0.47 nanomoles per minute per milli
same,Km,[3]; read-out: Km of M6 formation,45.6 µM
same,Km,[4],75.7 µM
same,Vmax of M6 formation,[5],2.99+/−0.28 nanomoles per minute per milli
same,Km,[5]; read-out: Km of M6 formation,424 µM
same,apoptotic cells (TUNEL),"[6]; H-1299, 10 μM",5.2%
same,apoptotic cells (TUNEL),"[6]; H-1299, 20 μM",31.6%
same,apoptotic cells (TUNEL),"[7]; HCT-116, 10 μM",10.3%
same,apoptotic cells (TUNEL),"[7]; HCT-116, 20 μM",31.2%
same,pIC50,[8],4.70
same,pIC50,[9],4.76
